According to PMC8388802, “Study on the Structure-Activity Relationship of an Antimicrobial Peptide, Brevinin-2GUb, from the Skin Secretion of Hylarana guentheri” (Antibiotics, 2021):
In brackets after ≈: the same amount, converted by molar mass. Where a SMILES comes first, the peptide text is derived from it.

Assays:
[1] = test system: S. aureus (ATCC 6538); type: cell-based, Staphylococcus aureus
Method: (§1) The method of antimicrobial assay is based on the Methods for Dilution Antimicrobial Susceptibility Tests for Bacteria that Grow Aerobically from the Clinical and Laboratory Standards Institute (CLSI).The antimicrobial activities of peptides were evaluated against Gram-positive bacteria S. aureus (ATCC 6538), MRSA (NCTC 12493), E. faecalis (NCTC 12493), Gram-negative bacteria E. coli (ATCC CRM 8739), K. pneumoniae (ATCC 43816), P. aeruginosa (ATCC CRM 9027), yeast C. albicans (ATCC CRM 10231) and clinical isolates MRSA (B042 V2E1 A), E. coli (ATCC BAA-2340), K. pneumoniae (ATCC BAA-1705), P. aeruginosa (B004 V2S2 B).
(§2) At the first stage of the assay, 20 μL bacteria were cultured in 100 mL Mueller Hinton Broth (MHB) or Yeast Extract–Peptone–Dextrose broth (YPD-B), respectively, and was incubated overnight. Then, microorganisms were subcultured in 20 mL fresh MHB or YPD-B to achieve cultures in the logarithmic phase (1 × 10^8 CFU/mL), which can be verified by optical density (OD) (The OD of Gram-positive bacteria is 0.23, OD of Gram-negative bacteria is 0.4, and OD of yeast is 0.15), and viable cell counts. Then, the medium was used to dilute the cultures to specific cell densities (Gram-negative and Gram-positive bacteria: 5 × 10^5 CFU/mL; yeast: 1 × 10^6 CFU/mL), which were the final concentrations of bacterial suspensions used in the assay. The peptides were dissolved in DMSO to reach a final concentration of 512 µM. A series of two-fold dilutions ranging from 512 µM to 1 µM were dosed in the 96-well plates.
(§3) Antimicrobial assays were conducted in 96-well plates, which were divided into five groups, including a negative control group (PBS), a positive control group (20 μg/mL norfloxacin for bacteria and 10 μg/mL amphotericin B for yeast), vehicle control (1% DMSO), blank control (MHB or YPD-B), and a peptide group. Each microorganism had five repetitions, and each well contained 1 µL corresponding solution and 99 µL culture. After incubation at 37 °C overnight, the absorbance of each well was tested by a microplate reader (EL808, Biolise BioTek Winooski, Minneapolis, USA) under a 550 nm wavelength. The MIC is the lowest concentration at which no bacterial growth can be observed.
(§4) The next day, 10 µL of every clear well was taken out to be cultured on a Mueller Hinton Agar (MHA) plate and incubated at 37 °C for 16–20 h. The MBC is the lowest concentration without any bacterial colonies, which means at this concentration, the peptide reduces the viability of the pathogen by more than 99.9%.

[2] = test system: C. albicans (ATCC CRM 10231); type: cell-based, Candida albicans
Method: as §1, §2, §3, §4

[3] = test system: horse red cells (defibrinated horse blood); test: Haemolysis assay; type: cell-based; conditions: 2% (v/v) horse red cell suspension mixed 1:1 with peptide in PBS, 37 ℃ 2 h, absorbance 570 nm, 0.1% Triton X-100 positive control; nine replicates from three independent tests
Method: The haemolysis assay was conducted on defibrinated horse blood (TCS Biosciences Ltd., Buckingham, UK), which was washed by PBS in advance. The peptides were dissolved in PBS to the concentration of 1024 μM, and a series of two-fold dilutions was made by PBS as well. A volume of different concentrations of 120 μL peptide solutions were mixed with the same volume of 2% (v/v) of horse red cell suspension gently in a 1.5 mL tube, and the complex was incubated at 37 ℃ for 2 h. PBS and 0.1% Triton X-100 with the same volume were used as the negative and positive controls, respectively. Each group had three replicates. After the incubation, 100 μL supernatant of each tube was aspirated into a new 96-well plate, and their absorbances were analysed by a microplate reader (EL808, Biolise BioTek Winooski, Minneapolis, USA) at a wavelength of 570 nm. The equation to calculate the haemolysis of the peptides is shown below. (2) […]=(A−An)/(Ap−An)×100%
A represents the absorbance of each well in the sample groups. An represents the average absorbance of the wells in the negative control group. Ap represents the average absorbance of the wells in the positive control group.

[4] = test system: K. pneumoniae (ATCC 43816) biofilm; type: cell-based, Klebsiella pneumoniae; conditions: ATCC 43816, 24 h
Method: (§5) The anti-biofilm activities of the peptides against S. aureus (ATCC 6538), MRSA (NCTC 12493), E. faecalis (NCTC 12493), E. coli (ATCC CRM 8739), K. pneumoniae (ATCC 43816), and P. aeruginosa (ATCC CRM 9027) were evaluated.
(§6) The bacteria were inoculated in a different medium (Gram-positive bacteria were in TSB and Gram-negative bacteria were in LB) overnight, and the subculture was conducted in the same medium. When the bacteria reached a specific density, 100 µL of the dilution was added to each well of the 96-well microplate. Then 1 µL of peptide at a series of concentrations, the same concentration in the antimicrobial assay, were added into the well together with the bacteria. The plates were put into a moist shaking incubator with a speed of 200 rpm, and the temperature was set at 37 ℃. After a 24-h incubation, the liquid in the wells was aspirated, and each was washed twice by 100 µL PBS. One hundred µL of methanol were added into each well to stabilise the biofilm. After air-drying, 100 µL crystal violet was used to dye the biofilm, and they were dissolved in the 100 µL glacial acidic acid after drying. The solutions were transferred to a new microplate, and the absorbance of each well was tested by a microplate reader (EL808, Biolise BioTek Winooski, Minneapolis, MN, USA) at 595 nm wavelength. MBIC was the minimum concentration of the peptide showing no biofilm formation.
(§7) The bacteria were inoculated in a different medium (Gram-positive bacteria were in TSB and Gram-negative bacteria were in LB) overnight, and the subculture was conducted in the same medium. When the bacteria reached a specific density, 100 µL of the dilution was added to each well of the 96-well microplates. The plates were put into a moist shaking incubator with a speed of 200 rpm and the temperature was 37 ℃. After a 24 h incubation, the liquid in the wells was aspirated and they were washed twice by 100 µL PBS of each well. The peptides with the same concentrations were diluted in the corresponding medium and 100 µL were added into each well. After a 24-h incubation, the liquid in the wells was aspirated and they were washed twice by 100 µL PBS. One hundred µL of methanol were added into the wells to stabilise the biofilms. After being air-dried, 100 µL crystal violet was used to dye the biofilm, and they were dissolved in the 100 µL glacial acidic acid after drying. The solutions were transferred to a new microplate, and the absorbance of each well was tested by a microplate reader (EL808, Biolise BioTek Winooski, Minneapolis, USA) at 595 nm wavelength.

[5] = test system: E. faecalis (NCTC 12493) biofilm; type: cell-based, Enterococcus faecalis; conditions: NCTC 12493, 24 h
Method: as §5, §6, §7

Row | Structure (SMILES) | MBC [1] [µM] | MIC [1] [µM] | MBC [2] [µM] | MIC [2] [µM] | HC50 [3] | MBEC [4] [µM] | MBIC [4] [µM] | MBEC [5] [µM] | MBIC [5] [µM]
1 | CC[C@H](C)[C@H](NC(=O)[C@@H](NC(=O)CN)C(C)C)C(=O)N[C@H](C(=O)N[C@@H](CC(=O)O)C(=O)N[C@H](C(=O)N[C@@H](CC(C)C)C(=O)N[C@@H](CCCCN)C(=O)NCC(=O)N[C@@H](C)C(=O)N[C@@H](C)C(=O)N[C@@H](CCCCN)C(=O)N[C@H](C(=O)N[C@H](C(=O)N[C@@H](C)C(=O)N[C@@H](C)C(=O)N[C@@H](CCC(=O)O)C(=O)N[C@@H](CC(C)C)C(=O)N[C@@H](CC(C)C)C(=O)N[C@@H](CCCNC(=N)N)C(=O)N[C@@H](CCCCN)C(=O)N[C@@H](C)C(=O)N[C@@H](Cc1c[nH]cn1)C(N)=O)C(C)C)[C@@H](C)O)[C@@H](C)O)[C@@H](C)CC [tB2U] (H-GVIIDTLKGAAKTVAAELLRKAH-NH2) | > 512 | 256 (≈ 608 µg/mL) | >512 | >512 | 16,393 μM | >512 | >512 | > 512 | 256
2 | CC[C@H](C)[C@H](NC(=O)[C@@H](NC(=O)CN)C(C)C)C(=O)N[C@H](C(=O)N[C@@H](CCCCN)C(=O)N[C@H](C(=O)N[C@@H](CC(C)C)C(=O)N[C@@H](CCCCN)C(=O)NCC(=O)N[C@@H](C)C(=O)N[C@@H](C)C(=O)N[C@@H](CCCCN)C(=O)N[C@H](C(=O)N[C@H](C(N)=O)C(C)C)[C@@H](C)O)[C@@H](C)O)[C@@H](C)CC [Peptide 14-tB2U-K] (H-GVIIKTLKGAAKTV-NH2) | > 512 | 256 (≈ 358 µg/mL) | >512 | >512 | 10,834 μM | >512 | >512 | >512 | >512
3 | CC[C@H](C)[C@H](NC(=O)[C@@H](NC(=O)CN)C(C)C)C(=O)N[C@H](C(=O)N[C@@H](CCCCN)C(=O)N[C@H](C(=O)N[C@@H](CC(C)C)C(=O)N[C@@H](CCCCN)C(=O)NCC(=O)N[C@@H](C)C(=O)N[C@@H](C)C(=O)N[C@@H](CCCCN)C(=O)N[C@H](C(=O)N[C@H](C(=O)N[C@@H](C)C(=O)N[C@@H](C)C(=O)N[C@@H](CCCCN)C(=O)N[C@@H](CC(C)C)C(=O)N[C@@H](CC(C)C)C(N)=O)C(C)C)[C@@H](C)O)[C@@H](C)O)[C@@H](C)CC [tB2U-K] (H-GVIIKTLKGAAKTVAAKLL-NH2) | 32 (≈ 60.6 µg/mL) | 32 (≈ 60.6 µg/mL) | 64 (≈ 121 µg/mL) | 64 (≈ 121 µg/mL) | 3056 µM | > 512 | 128 | > 512 | 32
4 | CC[C@H](C)[C@H](NC(=O)[C@@H](NC(=O)CN)C(C)C)C(=O)N[C@H](C(=O)N[C@@H](CCCCN)C(=O)N[C@H](C(=O)N[C@@H](CC(C)C)C(N)=O)[C@@H](C)O)[C@@H](C)CC [Peptide 7-tB2U-K] (H-GVIIKTL-NH2) | > 512 | 512 (≈ 380 µg/mL) | >512 | >512 | 11,008 μM | >512 | >512 | >512 | >512
5 | CC[C@H](C)[C@H](NC(=O)[C@@H](NC(=O)CN)C(C)C)C(=O)N[C@H](C(=O)N[C@@H](CCCCN)C(=O)N[C@@H](CCCCN)C(=O)N[C@@H](CC(C)C)C(=O)N[C@@H](CCCCN)C(=O)NCC(=O)N[C@@H](C)C(=O)N[C@@H](C)C(=O)N[C@@H](CCCCN)C(=O)N[C@@H](CCCCN)C(=O)N[C@H](C(=O)N[C@@H](C)C(=O)N[C@@H](C)C(=O)N[C@@H](CCCCN)C(=O)N[C@@H](CC(C)C)C(=O)N[C@@H](CC(C)C)C(N)=O)C(C)C)[C@@H](C)CC [tB2U-6K] (H-GVIIKKLKGAAKKVAAKLL-NH2) | 32 (≈ 62.4 µg/mL) | 32 (≈ 62.4 µg/mL) | 256 (≈ 499 µg/mL) | 256 (≈ 499 µg/mL) | 6506 µM | > 512 | 32 | > 512 | 64
6 | CC[C@H](C)[C@H](NC(=O)[C@@H](NC(=O)CN)C(C)C)C(=O)N[C@H](C(=O)N[C@@H](CC(=O)O)C(=O)N[C@H](C(=O)N[C@@H](CC(C)C)C(=O)N[C@@H](CCCCN)C(=O)NCC(=O)N[C@@H](C)C(=O)N[C@@H](C)C(=O)N[C@@H](CCCCN)C(=O)N[C@H](C(=O)N[C@H](C(=O)N[C@@H](C)C(=O)N[C@@H](C)C(=O)N[C@@H](CCC(=O)O)C(=O)N[C@@H](CC(C)C)C(=O)N[C@@H](CC(C)C)C(N)=O)C(C)C)[C@@H](C)O)[C@@H](C)O)[C@@H](C)CC [tB2U-α] (H-GVIIDTLKGAAKTVAAELL-NH2) | >512 | >512 | >512 | >512 | 15,609 μM | >512 | >512 | >512 | >512
